Measured values as given in the NIST ThermoML archive (doi:10.1016/j.jct.2006.05.008).

Assay: molar heat capacity at saturation pressure
Conditions: Glass, Small (less than 1 g) adiabatic calorimetry

CCC[n+]1ccn(C)c1.[Br-] [1-methyl-3-propylimidazolium bromide]
Conditions	molar heat capacity [J/K/mol]
80.55 K	98.61
82.89 K	100.33
84.9 K	101.67
86.92 K	103.14
88.94 K	104.66
90.96 K	106.14
92.98 K	107.59
95 K	109.05
97.02 K	110.46
99.05 K	111.82
101.08 K	113.17
103.11 K	114.53
105.14 K	115.8
107.17 K	117.19
109.2 K	118.42
111.24 K	119.73
113.29 K	120.92
115.33 K	122.2
117.37 K	123.41
119.41 K	124.68
121.46 K	125.82
123.5 K	127.01
125.55 K	128.16
127.6 K	129.31
129.65 K	130.51
131.7 K	131.69
133.75 K	132.94
135.8 K	134.11
137.86 K	135.27
139.91 K	136.51
141.97 K	137.66
144.02 K	138.89
146.09 K	140.08
148.15 K	141.29
150.21 K	142.47
152.27 K	143.7
154.33 K	144.86
156.39 K	146.04
158.46 K	147.24
160.52 K	148.42
162.58 K	149.59
164.65 K	150.76
166.71 K	151.98
168.78 K	153.15
170.84 K	154.38
172.91 K	155.61
174.97 K	156.8
177.04 K	158.04
179.11 K	159.26
181.18 K	160.5
183.25 K	161.87
185.32 K	163.21
187.39 K	164.56
189.46 K	165.92
191.53 K	167.36
193.61 K	168.95
195.69 K	170.66
197.77 K	172.38
199.86 K	174.39
201.95 K	176.91
202.67 K	177.34
204.04 K	179.87
205.14 K	181.79
206.12 K	184.42
207.25 K	188.13
208.16 K	192.2
209.29 K	200.7
210.11 K	209.2
211.19 K	228.95
211.92 K	238.53
213.01 K	255.28
213.79 K	257.19
215.01 K	258.34
215.82 K	258.85
